Results as given in the NIST ThermoML archive (doi:10.1021/acs.jced.7b00221).
Numbers after ± are expanded uncertainties.

Experiments:
[1] = 100 kPa, Liquid; for viscosity: Cone and plate viscometry; for mass density: Vibrating tube method
[2] = xn = mol fraction of the nth substance listed; conditions: 100 kPa, Liquid, Vibrating tube method, x2 = 0

| Structure (SMILES) | viscosity ([1]; 278.15 K) | viscosity ([1]; 283.15 K) | viscosity ([1]; 288.15 K) | mass density ([1]; 283.15 K) | mass density ([1]; 288.15 K) | mass density ([1]; 293.15 K) | mass density ([1]; 295.15 K) | mass density ([1]; 298.15 K) | mass density ([1]; 303.15 K) | mass density ([1]; 308.15 K) | mass density ([1]; 313.15 K) | mass density ([1]; 318.15 K) | mass density ([1]; 323.15 K) | mass density ([1]; 328.15 K) | mass density ([1]; 333.15 K) | mass density ([1]; 338.15 K) | mass density ([1]; 343.15 K) | mass density ([1]; 348.15 K) | mass density ([1]; 353.15 K) | viscosity ([1]; 293.15 K) | also measured |
| --- | --- | --- | --- | --- | --- | --- | --- | --- | --- | --- | --- | --- | --- | --- | --- | --- | --- | --- | --- | --- | --- |
| CC[P+](CC)(CC)COCCOC.O=S(=O)([N-]S(=O)(=O)C(F)(F)F)C(F)(F)F | 84 ± 10 mPa·s | 65 ± 8 mPa·s | 51 ± 6 mPa·s | – | – | – | – | – | – | – | – | – | – | – | – | – | – | – | – | – | – |
| CCCCCC[n+]1ccn(C)c1.O=S(=O)([N-]S(=O)(=O)C(F)(F)F)C(F)(F)F | – | – | – | 1385.6 ± 4 kg/m3 | 1381 ± 4 kg/m3 | 1376.5 ± 4 kg/m3 | 1374.6 ± 4 kg/m3 | 1371.9 ± 4 kg/m3 | 1367.3 ± 4 kg/m3 | 1362.8 ± 4 kg/m3 | 1358.3 ± 4 kg/m3 | 1353.7 ± 4 kg/m3 | 1349.2 ± 4 kg/m3 | 1344.7 ± 4 kg/m3 | 1340.3 ± 4 kg/m3 | 1335.8 ± 4 kg/m3 | 1331.4 ± 4 kg/m3 | 1326.9 ± 4 kg/m3 | 1322.5 ± 4 kg/m3 | – | – |
| CCCCCCCC[P+](CC)(CC)CC.O=[N+]([O-])c1cn[n-]c1 [triethyloctylphosphonium 4-nitropyrazolide] | – | – | – | 1040.7 ± 12 kg/m3 | 1037.7 ± 12 kg/m3 | 1034.6 ± 12 kg/m3 | 1033.4 ± 12 kg/m3 | 1031.5 ± 12 kg/m3 | 1028.5 ± 12 kg/m3 | 1025.5 ± 12 kg/m3 | 1022.6 ± 12 kg/m3 | 1019.6 ± 12 kg/m3 | 1016.7 ± 12 kg/m3 | 1013.8 ± 12 kg/m3 | 1010.8 ± 12 kg/m3 | 1007.9 ± 12 kg/m3 | 1005 ± 12 kg/m3 | 1002.1 ± 12 kg/m3 | 999.2 ± 12 kg/m3 | – | – |
| CCCCCCn1cc[n+](C)c1C.O=S(=O)([N-]S(=O)(=O)C(F)(F)F)C(F)(F)F | – | – | – | 1373 ± 12 kg/m3 | 1368.4 ± 12 kg/m3 | 1363.9 ± 12 kg/m3 | 1362.1 ± 12 kg/m3 | 1359.5 ± 12 kg/m3 | 1355.1 ± 12 kg/m3 | 1350.8 ± 12 kg/m3 | 1346.4 ± 12 kg/m3 | 1342 ± 12 kg/m3 | 1337.6 ± 12 kg/m3 | 1333.2 ± 12 kg/m3 | 1328.9 ± 12 kg/m3 | 1324.5 ± 12 kg/m3 | 1320.2 ± 12 kg/m3 | 1315.8 ± 12 kg/m3 | 1311.5 ± 12 kg/m3 | – | – |
| CCCC[n+]1ccn(C)c1.O=S(=O)([N-]S(=O)(=O)C(F)(F)F)C(F)(F)F | 138 ± 17 mPa·s | 104 ± 13 mPa·s | 80 ± 10 mPa·s | 1451.1 ± 4 kg/m3 | 1446.3 ± 4 kg/m3 | 1441.5 ± 4 kg/m3 | 1439.6 ± 4 kg/m3 | 1436.8 ± 4 kg/m3 | 1432 ± 4 kg/m3 | 1427.3 ± 4 kg/m3 | 1422.7 ± 4 kg/m3 | 1418 ± 4 kg/m3 | 1413.3 ± 4 kg/m3 | 1408.7 ± 4 kg/m3 | 1404.1 ± 4 kg/m3 | 1399.4 ± 4 kg/m3 | 1394.8 ± 4 kg/m3 | 1390.2 ± 4 kg/m3 | 1385.7 ± 4 kg/m3 | 63 ± 8 mPa·s | viscosity ([1]; 298.15 K): 51 ± 6 mPa·s |
| CCCCCCn1cc[n+](C)c1.N#Cc1ccc[n-]1 [1-hexyl-3-methylimidazolium 2-cyanopyrrolide] | 1540 ± 210 mPa·s | 902 ± 120 mPa·s | 553 ± 72 mPa·s | – | – | – | – | – | – | – | – | – | – | – | – | – | – | – | – | 355 ± 45 mPa·s | viscosity ([1]; 298.15 K): 239 ± 30 mPa·s; viscosity ([1]; 303.15 K): 167 ± 21 mPa·s; viscosity ([1]; 308.15 K): 122 ± 15 mPa·s; viscosity ([1]; 313.15 K): 91 ± 11 mPa·s; viscosity ([1]; 318.15 K): 70 ± 9 mPa·s; viscosity ([1]; 323.15 K): 55 ± 7 mPa·s |
| CCCCCCCCCCCCCC[P+](CCCCCC)(CCCCCC)CCCCCC.N#Cc1ccc[n-]1 [trihexyl(tetradecyl)phosphonium 2-cyanopyrrolide] | 1764 ± 240 mPa·s | 1179 ± 160 mPa·s | 804 ± 110 mPa·s | – | – | – | – | – | – | – | – | – | – | – | – | – | – | – | – | 563 ± 73 mPa·s | viscosity ([1]; 298.15 K): 404 ± 51 mPa·s; viscosity ([1]; 303.15 K): 297 ± 37 mPa·s; viscosity ([1]; 308.15 K): 223 ± 28 mPa·s; viscosity ([1]; 313.15 K): 170 ± 21 mPa·s; viscosity ([1]; 318.15 K): 133 ± 16 mPa·s; viscosity ([1]; 323.15 K): 106 ± 13 mPa·s |
| CCn1cc[n+](C)c1.O=S(=O)([N-]S(=O)(=O)C(F)(F)F)C(F)(F)F | 80 ± 10 mPa·s | 63 ± 8 mPa·s | 50 ± 6 mPa·s | 1534.1 ± 4.1 kg/m3 | 1529 ± 4.1 kg/m3 | 1523.9 ± 4.1 kg/m3 | 1521.9 ± 4.1 kg/m3 | 1518.9 ± 4 kg/m3 | 1513.9 ± 4 kg/m3 | 1508.9 ± 4 kg/m3 | 1503.9 ± 4 kg/m3 | 1499 ± 4 kg/m3 | 1494.1 ± 4 kg/m3 | 1489.1 ± 4 kg/m3 | 1484.2 ± 4 kg/m3 | 1479.3 ± 4 kg/m3 | 1474.4 ± 4 kg/m3 | 1469.6 ± 4 kg/m3 | 1464.7 ± 4 kg/m3 | – | – |
| CCCCCCn1cc[n+](C)c1C.O=S(=O)([N-]S(=O)(=O)C(F)(F)F)C(F)(F)F + CCCCCCCC[P+](CC)(CC)CC.O=[N+]([O-])c1cn[n-]c1 | – | – | – | – | – | – | – | – | – | – | – | – | – | – | – | – | – | – | – | – | mass density ([2]; 283.15 K): 1373 ± 12 kg/m3; mass density ([2]; 288.15 K): 1368.4 ± 12 kg/m3; mass density ([2]; 293.15 K): 1363.9 ± 12 kg/m3; mass density ([2]; 295.15 K): 1362.1 ± 12 kg/m3; mass density ([2]; 298.15 K): 1359.5 ± 12 kg/m3; mass density ([2]; 303.15 K): 1355.1 ± 12 kg/m3; mass density ([2]; 308.15 K): 1350.8 ± 12 kg/m3; mass density ([2]; 313.15 K): 1346.4 ± 12 kg/m3; mass density ([2]; 318.15 K): 1342 ± 12 kg/m3; mass density ([2]; 323.15 K): 1337.6 ± 12 kg/m3; mass density ([2]; 328.15 K): 1333.2 ± 12 kg/m3; mass density ([2]; 333.15 K): 1328.9 ± 12 kg/m3; mass density ([2]; 338.15 K): 1324.5 ± 12 kg/m3; mass density ([2]; 343.15 K): 1320.2 ± 12 kg/m3; mass density ([2]; 348.15 K): 1315.8 ± 12 kg/m3; mass density ([2]; 353.15 K): 1311.5 ± 12 kg/m3 |
